The source of these data is ChEMBL document CHEMBL6115030, “Systematic All-Hydrocarbon Stapling Analysis for Cecropin A Generates a Potent and Stable Antimicrobial Peptide” (J Med Chem, 2025).

≈ marks a conversion by molar mass, not a printed value. Bridge positions count the residues as written; N and C are the ends. Square brackets hold non-standard residues; d marks the D form. Peptide text beside a SMILES is read from it. S5 = C=CCCC[C@](C)(N)C(=O)O A value given as a limit tells only on which side of the number the result lay.

Holding throughout (format): functional
For one test, the system named is Klebsiella pneumoniae. As to the kind of experiment: Antibacterial activity against Klebsiella pneumoniae ATCC 13883 assessed as inhibition of bacterial growth measured after 24 hrs by broth microdilution method. A general note: Broth dilution looks for growth in wells or tubes with falling amounts of substance.
The test system of the next test is Staphylococcus aureus. The experiment in a line: Antibacterial activity against Staphylococcus aureus ATCC 25923 assessed as inhibition of bacterial growth measured after 24 hrs by broth microdilution method.
Another test deals with Pseudomonas aeruginosa. As to the kind of experiment: Antibacterial activity against Pseudomonas aeruginosa PAO1 assessed as inhibition of bacterial growth measured after 24 hrs by broth microdilution method.

On to `CC[C@H](C)[C@H](NC(=O)[C@H](CCC(N)=O)NC(=O)[C@@H](NC(=O)[C@H](C)NC(=O)[C@H](CCC(N)=O)NC(=O)CNC(=O)[C@@H](NC(=O)[C@@H](NC(=O)[C@H](C)NC(=O)[C@@H](NC(=O)[C@H](C)NC(=O)[C@@H]1CCCN1C(=O)CNC(=O)[C@H](C)NC(=O)[C@H](CCCCN)NC(=O)[C@@H](NC(=O)[C@@H](NC(=O)[C@]1(C)CCC/C=C\CCC[C@](C)(NC(=O)[C@H](CCC(N)=O)NC(=O)CNC(=O)[C@@H](NC(=O)[C@H](CCCCN)NC(=O)[C@H](CCC(=O)O)NC(=O)[C@@H](NC(=O)[C@H](CCCCN)NC(=O)[C@H](CCCCN)NC(=O)[C@H](Cc2ccccc2)NC(=O)[C@H](CC(C)C)NC(=O)[C@H](CCCCN)NC(=O)[C@H](Cc2c[nH]c3ccccc23)NC(=O)[C@H](CCCCN)NC(C)=O)[C@@H](C)CC)C(C)C)C(=O)N[C@@H]([C@@H](C)CC)C(=O)N[C@@H](CCCNC(=N)N)C(=O)N[C@@H](CC(=O)O)C(=O)N1)[C@@H](C)CC)[C@@H](C)CC)C(C)C)C(C)C)C(C)C)[C@@H](C)O)C(=O)N[C@@H](C)C(=O)N[C@@H](CCCCN)C(N)=O` (Ac-KWKLFKKIEKVGQ[S5]IRD[S5]IIKAGPAVAVVGQATQIAK-NH2; staple (Z) 14-18), for which the MIC with Klebsiella pneumoniae, in the test on Staphylococcus aureus and in the test on Pseudomonas aeruginosa was over 100 µM in each case.
Take `CC[C@H](C)[C@H](NC(=O)CNC(=O)[C@]1(C)CCC/C=C\CCC[C@](C)(NC(=O)CNC(=O)[C@@H](NC(=O)[C@H](CCCCN)NC(=O)[C@H](CCC(=O)O)NC(=O)[C@@H](NC(=O)[C@H](CCCCN)NC(=O)[C@H](CCCCN)NC(=O)[C@H](Cc2ccccc2)NC(=O)[C@H](CC(C)C)NC(=O)[C@H](CCCCN)NC(=O)[C@H](Cc2c[nH]c3ccccc23)NC(=O)[C@H](CCCCN)NC(C)=O)[C@@H](C)CC)C(C)C)C(=O)N[C@@H](CC(N)=O)C(=O)N[C@@H]([C@@H](C)CC)C(=O)N[C@@H](CCCNC(=N)N)C(=O)N1)C(=O)N[C@H](C(=O)N[C@@H](CCCCN)C(=O)N[C@@H](C)C(=O)NCC(=O)N1CCC[C@H]1C(=O)N[C@@H](C)C(=O)N[C@H](C(=O)N[C@@H](C)C(=O)N[C@H](C(=O)N[C@H](C(=O)NCC(=O)N[C@@H](CCC(N)=O)C(=O)N[C@@H](C)C(=O)N[C@H](C(=O)N[C@@H](CCC(N)=O)C(=O)N[C@H](C(=O)N[C@@H](C)C(=O)N[C@@H](CCCCN)C(N)=O)[C@@H](C)CC)[C@@H](C)O)C(C)C)C(C)C)C(C)C)[C@@H](C)CC` (Ac-KWKLFKKIEKVG[S5]NIR[S5]GIIKAGPAVAVVGQATQIAK-NH2; staple (Z) 13-17): the MIC in the test with Klebsiella pneumoniae came out at 6.25 µM (≈ 25.3 µg/mL); in the test on Staphylococcus aureus, 50 µM (≈ 203 µg/mL); with Pseudomonas aeruginosa, 100 µM (≈ 405 µg/mL).
The corresponding values for `CC[C@H](C)[C@H](NC(=O)CNC(=O)[C@H](CC(=O)O)NC(=O)[C@H](CCCNC(=N)N)NC(=O)[C@@H](NC(=O)[C@H](CC(N)=O)NC(=O)[C@H](CCC(N)=O)NC(=O)CNC(=O)[C@@H](NC(=O)[C@H](CCCCN)NC(=O)[C@H](CCC(=O)O)NC(=O)[C@@H](NC(=O)[C@]1(C)CCC/C=C\CCC[C@](C)(NC(=O)[C@H](Cc2c[nH]c3ccccc23)NC(=O)[C@H](CCCCN)NC(C)=O)C(=O)N[C@@H](CC(C)C)C(=O)N[C@@H](Cc2ccccc2)C(=O)N[C@@H](CCCCN)C(=O)N1)[C@@H](C)CC)C(C)C)[C@@H](C)CC)C(=O)N[C@H](C(=O)N[C@@H](CCCCN)C(=O)N[C@@H](C)C(=O)NCC(=O)N1CCC[C@H]1C(=O)N[C@@H](C)C(=O)N[C@H](C(=O)N[C@@H](C)C(=O)N[C@H](C(=O)N[C@H](C(=O)NCC(=O)N[C@@H](CCC(N)=O)C(=O)N[C@@H](C)C(=O)N[C@H](C(=O)N[C@@H](CCC(N)=O)C(=O)N[C@H](C(=O)N[C@@H](C)C(=O)N[C@@H](CCCCN)C(N)=O)[C@@H](C)CC)[C@@H](C)O)C(C)C)C(C)C)C(C)C)[C@@H](C)CC` (Ac-KW[S5]LFK[S5]IEKVGQNIRDGIIKAGPAVAVVGQATQIAK-NH2; staple (Z) 3-7) are over 100 µM, over 100 µM and over 100 µM.
For `CC[C@H](C)[C@H](NC(=O)CNC(=O)[C@H](CC(=O)O)NC(=O)[C@H](CCCNC(=N)N)NC(=O)[C@@H](NC(=O)[C@H](CC(N)=O)NC(=O)[C@]1(C)CCC/C=C\CCC[C@](C)(NC(=O)[C@@H](NC(=O)[C@H](CCCCN)NC(=O)[C@H](CCCCN)NC(=O)[C@H](Cc2ccccc2)NC(=O)[C@H](CC(C)C)NC(=O)[C@H](CCCCN)NC(=O)[C@H](Cc2c[nH]c3ccccc23)NC(=O)[C@H](CCCCN)NC(C)=O)[C@@H](C)CC)C(=O)N[C@@H](CCCCN)C(=O)N[C@@H](C(C)C)C(=O)NCC(=O)N1)[C@@H](C)CC)C(=O)N[C@H](C(=O)N[C@@H](CCCCN)C(=O)N[C@@H](C)C(=O)NCC(=O)N1CCC[C@H]1C(=O)N[C@@H](C)C(=O)N[C@H](C(=O)N[C@@H](C)C(=O)N[C@H](C(=O)N[C@H](C(=O)NCC(=O)N[C@@H](CCC(N)=O)C(=O)N[C@@H](C)C(=O)N[C@H](C(=O)N[C@@H](CCC(N)=O)C(=O)N[C@H](C(=O)N[C@@H](C)C(=O)N[C@@H](CCCCN)C(N)=O)[C@@H](C)CC)[C@@H](C)O)C(C)C)C(C)C)C(C)C)[C@@H](C)CC` (Ac-KWKLFKKI[S5]KVG[S5]NIRDGIIKAGPAVAVVGQATQIAK-NH2; staple (Z) 9-13), in that order: 6.25 µM (≈ 25.2 µg/mL), 1.56 µM (≈ 6.3 µg/mL) and over 100 µM.
For the compound `CC[C@H](C)[C@H](NC(=O)CNC(=O)[C@H](CC(=O)O)NC(=O)[C@H](CCCNC(=N)N)NC(=O)[C@]1(C)CCC/C=C\CCC[C@](C)(NC(=O)[C@H](CCCCN)NC(=O)[C@H](CCC(=O)O)NC(=O)[C@@H](NC(=O)[C@H](CCCCN)NC(=O)[C@H](CCCCN)NC(=O)[C@H](Cc2ccccc2)NC(=O)[C@H](CC(C)C)NC(=O)[C@H](CCCCN)NC(=O)[C@H](Cc2c[nH]c3ccccc23)NC(=O)[C@H](CCCCN)NC(C)=O)[C@@H](C)CC)C(=O)NCC(=O)N[C@@H](CCC(N)=O)C(=O)N[C@@H](CC(N)=O)C(=O)N1)C(=O)N[C@H](C(=O)N[C@@H](CCCCN)C(=O)N[C@@H](C)C(=O)NCC(=O)N1CCC[C@H]1C(=O)N[C@@H](C)C(=O)N[C@H](C(=O)N[C@@H](C)C(=O)N[C@H](C(=O)N[C@H](C(=O)NCC(=O)N[C@@H](CCC(N)=O)C(=O)N[C@@H](C)C(=O)N[C@H](C(=O)N[C@@H](CCC(N)=O)C(=O)N[C@H](C(=O)N[C@@H](C)C(=O)N[C@@H](CCCCN)C(N)=O)[C@@H](C)CC)[C@@H](C)O)C(C)C)C(C)C)C(C)C)[C@@H](C)CC` (Ac-KWKLFKKIEK[S5]GQN[S5]RDGIIKAGPAVAVVGQATQIAK-NH2; staple (Z) 11-15), the MIC with Klebsiella pneumoniae came out at 6.25 µM (≈ 25.5 µg/mL); in the test on Staphylococcus aureus it was 25 µM (≈ 102 µg/mL); in the test on Pseudomonas aeruginosa, 80 µM (≈ 327 µg/mL).
For `CC[C@H](C)[C@@H]1NC(=O)CNC(=O)[C@H](CC(=O)O)NC(=O)[C@@](C)(NC(=O)[C@@H](NC(=O)[C@H](CC(N)=O)NC(=O)[C@H](CCC(N)=O)NC(=O)CNC(=O)[C@@H](NC(=O)[C@H](CCCCN)NC(=O)[C@H](CCC(=O)O)NC(=O)[C@@H](NC(=O)[C@H](CCCCN)NC(=O)[C@H](CCCCN)NC(=O)[C@H](Cc2ccccc2)NC(=O)[C@H](CC(C)C)NC(=O)[C@H](CCCCN)NC(=O)[C@H](Cc2c[nH]c3ccccc23)NC(=O)[C@H](CCCCN)NC(C)=O)[C@@H](C)CC)C(C)C)[C@@H](C)CC)CCC/C=C\CCC[C@@](C)(C(=O)N[C@@H](CCCCN)C(=O)N[C@@H](C)C(=O)NCC(=O)N2CCC[C@H]2C(=O)N[C@@H](C)C(=O)N[C@H](C(=O)N[C@@H](C)C(=O)N[C@H](C(=O)N[C@H](C(=O)NCC(=O)N[C@@H](CCC(N)=O)C(=O)N[C@@H](C)C(=O)N[C@H](C(=O)N[C@@H](CCC(N)=O)C(=O)N[C@H](C(=O)N[C@@H](C)C(=O)N[C@@H](CCCCN)C(N)=O)[C@@H](C)CC)[C@@H](C)O)C(C)C)C(C)C)C(C)C)NC1=O` (Ac-KWKLFKKIEKVGQNI[S5]DGI[S5]KAGPAVAVVGQATQIAK-NH2; staple (Z) 16-20), the results for the MIC with Klebsiella pneumoniae, in the test with Staphylococcus aureus and in the test with Pseudomonas aeruginosa were 6.25 µM (≈ 25.2 µg/mL), 12.5 µM (≈ 50.3 µg/mL) and 100 µM (≈ 403 µg/mL), respectively.
For `CC[C@H](C)[C@H](NC(=O)CNC(=O)[C@H](CC(=O)O)NC(=O)[C@]1(C)CCC/C=C\CCC[C@](C)(NC(=O)[C@@H](NC(=O)[C@H](CCCCN)NC(=O)[C@H](CCC(=O)O)NC(=O)[C@@H](NC(=O)[C@H](CCCCN)NC(=O)[C@H](CCCCN)NC(=O)[C@H](Cc2ccccc2)NC(=O)[C@H](CC(C)C)NC(=O)[C@H](CCCCN)NC(=O)[C@H](Cc2c[nH]c3ccccc23)NC(=O)[C@H](CCCCN)NC(C)=O)[C@@H](C)CC)C(C)C)C(=O)N[C@@H](CCC(N)=O)C(=O)N[C@@H](CC(N)=O)C(=O)N[C@@H]([C@@H](C)CC)C(=O)N1)C(=O)N[C@H](C(=O)N[C@@H](CCCCN)C(=O)N[C@@H](C)C(=O)NCC(=O)N1CCC[C@H]1C(=O)N[C@@H](C)C(=O)N[C@H](C(=O)N[C@@H](C)C(=O)N[C@H](C(=O)N[C@H](C(=O)NCC(=O)N[C@@H](CCC(N)=O)C(=O)N[C@@H](C)C(=O)N[C@H](C(=O)N[C@@H](CCC(N)=O)C(=O)N[C@H](C(=O)N[C@@H](C)C(=O)N[C@@H](CCCCN)C(N)=O)[C@@H](C)CC)[C@@H](C)O)C(C)C)C(C)C)C(C)C)[C@@H](C)CC` (Ac-KWKLFKKIEKV[S5]QNI[S5]DGIIKAGPAVAVVGQATQIAK-NH2; staple (Z) 12-16), the values for the MIC in the test on Klebsiella pneumoniae, in the test with Staphylococcus aureus and in the test on Pseudomonas aeruginosa were over 100 µM, 25 µM (≈ 102 µg/mL) and over 100 µM, respectively.
For `CC[C@H](C)[C@H](NC(=O)[C@H](CCC(N)=O)NC(=O)[C@@H](NC(=O)[C@H](C)NC(=O)[C@H](CCC(N)=O)NC(=O)CNC(=O)[C@@H](NC(=O)[C@@H](NC(=O)[C@H](C)NC(=O)[C@@H](NC(=O)[C@H](C)NC(=O)[C@@H]1CCCN1C(=O)CNC(=O)[C@H](C)NC(=O)[C@H](CCCCN)NC(=O)[C@@H](NC(=O)[C@]1(C)CCC/C=C\CCC[C@](C)(NC(=O)[C@H](CC(N)=O)NC(=O)[C@H](CCC(N)=O)NC(=O)CNC(=O)[C@@H](NC(=O)[C@H](CCCCN)NC(=O)[C@H](CCC(=O)O)NC(=O)[C@@H](NC(=O)[C@H](CCCCN)NC(=O)[C@H](CCCCN)NC(=O)[C@H](Cc2ccccc2)NC(=O)[C@H](CC(C)C)NC(=O)[C@H](CCCCN)NC(=O)[C@H](Cc2c[nH]c3ccccc23)NC(=O)[C@H](CCCCN)NC(C)=O)[C@@H](C)CC)C(C)C)C(=O)N[C@@H](CCCNC(=N)N)C(=O)N[C@@H](CC(=O)O)C(=O)NCC(=O)N1)[C@@H](C)CC)C(C)C)C(C)C)C(C)C)[C@@H](C)O)C(=O)N[C@@H](C)C(=O)N[C@@H](CCCCN)C(N)=O` (Ac-KWKLFKKIEKVGQN[S5]RDG[S5]IKAGPAVAVVGQATQIAK-NH2; staple (Z) 15-19), the MIC in the test on Klebsiella pneumoniae is 12.5 µM (≈ 50.9 µg/mL); in the test on Staphylococcus aureus, over 100 µM; in the test with Pseudomonas aeruginosa, 100 µM (≈ 407 µg/mL).

One may read the MIC as the lowest concentration that inhibits growth of the organism.
